Like-named read-outs stand apart in the source and are kept apart here.
Assays:
M1 muscarinic receptor = target: T1, M1 muscarinic receptor (Homo sapiens, UniProt P11229); assay: Receptor Selection and Amplification (R-SAT) assay, cloned M1 receptor; type: cell-based; parameters: M1 Eff: scale not given here; details: for Emax: read-out: m1 % Efficacy
T1 construct: expressed in transfected cells
T1 sequence (P11229 1-460): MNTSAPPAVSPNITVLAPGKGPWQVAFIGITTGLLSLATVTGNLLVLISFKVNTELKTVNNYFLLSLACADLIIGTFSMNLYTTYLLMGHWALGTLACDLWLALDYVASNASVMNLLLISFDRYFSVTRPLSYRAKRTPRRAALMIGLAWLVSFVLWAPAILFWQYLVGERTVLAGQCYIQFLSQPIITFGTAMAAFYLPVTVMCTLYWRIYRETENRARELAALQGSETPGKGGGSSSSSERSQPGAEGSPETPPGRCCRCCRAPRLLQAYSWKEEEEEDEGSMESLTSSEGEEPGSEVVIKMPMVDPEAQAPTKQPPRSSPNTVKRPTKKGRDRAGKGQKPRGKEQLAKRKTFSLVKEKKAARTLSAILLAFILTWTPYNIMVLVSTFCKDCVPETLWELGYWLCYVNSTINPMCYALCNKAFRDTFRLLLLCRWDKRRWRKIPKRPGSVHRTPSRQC
Source text: (§1) The EC50 for an agonist is intended to denote the concentration of a compound needed to achieve 50% of a maximal response seen in an in vitro assay such as R-SAT. For inverse agonists, EC50 is intended to denote the concentration of a compound needed to achieve 50% inhibition of an R-SAT response from basal, no compound, levels.
(§2) A particularly convenient functional assay system is the receptor selection and amplification assay (R-SAT assay) in U.S. Pat. No. 5,707,798, which describes a method of screening for bioactive compounds by utilizing the ability of cells transfected with receptor DNA, e.g., coding for the different muscarinic subtypes, to amplify in the presence of a ligand of the receptor. Cell amplification is detected as increased levels of a marker also expressed by the cells.
(§3) Receptor Selection and Amplification (R-SAT) assays were carried out using the cloned M1-M5 receptors essentially as described in: Brauner-Osborne H, Brann M R. Pharmacology of muscarinic acetylcholine receptor subtypes (m1-m5): high throughput assays in mammalian cells. Eur J Pharmacol Jan. 4, 1996;295(1):93-102, and Spalding T A, Trotter C, Skjaerbaek N, Messier T L, Currier E A, Burstein E S, Li D, Hacksell U, Brann M R. Discovery of an ectopic activation site on the M(1) muscarinic receptor. Mol Pharmacol. 2002 June;61(6):1297-302.

M2 muscarinic receptor = target: T2, M2 muscarinic receptor (Homo sapiens, UniProt P08172); assay: Receptor Selection and Amplification (R-SAT) assay, cloned M2 receptor; type: cell-based; parameters: M2 Eff: scale not given here; details: for Emax: read-out: m2 % Efficacy
T2 construct: expressed in transfected cells
T2 sequence (P08172 1-466): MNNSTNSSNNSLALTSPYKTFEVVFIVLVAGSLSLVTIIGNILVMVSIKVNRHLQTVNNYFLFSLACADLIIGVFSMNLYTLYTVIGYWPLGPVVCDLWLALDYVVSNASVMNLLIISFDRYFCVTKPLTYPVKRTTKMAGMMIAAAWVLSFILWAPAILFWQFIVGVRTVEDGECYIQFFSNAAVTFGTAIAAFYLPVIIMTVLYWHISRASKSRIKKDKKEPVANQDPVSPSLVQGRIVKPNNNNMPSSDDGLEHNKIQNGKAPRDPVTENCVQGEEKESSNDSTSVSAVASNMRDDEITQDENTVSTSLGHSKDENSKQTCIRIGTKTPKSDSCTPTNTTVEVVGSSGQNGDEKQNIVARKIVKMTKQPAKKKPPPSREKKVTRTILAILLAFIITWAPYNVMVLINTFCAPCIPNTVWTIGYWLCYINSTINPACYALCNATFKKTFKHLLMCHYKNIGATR
Source text: as §1, §2, §3

M4 muscarinic receptor = target: T3, M4 muscarinic receptor (Homo sapiens, UniProt P08173); assay: Receptor Selection and Amplification (R-SAT) assay, cloned M4 receptor; type: cell-based; details: R-SAT, cloned m4 receptor; for Emax: read-out: m4 % Efficacy; for EC50: read-out: m4 pEC50 (converted)
T3 construct: expressed in transfected cells
T3 sequence (P08173 1-479): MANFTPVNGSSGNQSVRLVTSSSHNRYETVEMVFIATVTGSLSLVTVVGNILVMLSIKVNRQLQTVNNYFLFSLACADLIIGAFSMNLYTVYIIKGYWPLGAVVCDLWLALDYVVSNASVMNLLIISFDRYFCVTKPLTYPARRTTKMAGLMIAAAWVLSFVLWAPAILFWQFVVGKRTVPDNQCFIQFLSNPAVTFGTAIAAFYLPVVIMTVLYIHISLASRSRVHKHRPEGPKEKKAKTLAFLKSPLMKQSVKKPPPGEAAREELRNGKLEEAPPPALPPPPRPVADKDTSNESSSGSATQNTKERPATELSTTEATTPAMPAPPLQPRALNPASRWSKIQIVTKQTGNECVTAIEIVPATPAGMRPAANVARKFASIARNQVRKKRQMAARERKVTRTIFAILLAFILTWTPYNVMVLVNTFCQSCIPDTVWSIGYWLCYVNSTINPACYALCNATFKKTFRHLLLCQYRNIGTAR
Source text: as §1, §2, §3

M5 muscarinic receptor = target: T4, M5 muscarinic receptor (Homo sapiens, UniProt P08912); assay: Receptor Selection and Amplification (R-SAT) assay, cloned M5 receptor; type: cell-based; details: for Emax: read-out: m5 % Efficacy; for EC50: read-out: m5 pEC50 (converted)
T4 construct: expressed in transfected cells
T4 sequence (P08912 1-532): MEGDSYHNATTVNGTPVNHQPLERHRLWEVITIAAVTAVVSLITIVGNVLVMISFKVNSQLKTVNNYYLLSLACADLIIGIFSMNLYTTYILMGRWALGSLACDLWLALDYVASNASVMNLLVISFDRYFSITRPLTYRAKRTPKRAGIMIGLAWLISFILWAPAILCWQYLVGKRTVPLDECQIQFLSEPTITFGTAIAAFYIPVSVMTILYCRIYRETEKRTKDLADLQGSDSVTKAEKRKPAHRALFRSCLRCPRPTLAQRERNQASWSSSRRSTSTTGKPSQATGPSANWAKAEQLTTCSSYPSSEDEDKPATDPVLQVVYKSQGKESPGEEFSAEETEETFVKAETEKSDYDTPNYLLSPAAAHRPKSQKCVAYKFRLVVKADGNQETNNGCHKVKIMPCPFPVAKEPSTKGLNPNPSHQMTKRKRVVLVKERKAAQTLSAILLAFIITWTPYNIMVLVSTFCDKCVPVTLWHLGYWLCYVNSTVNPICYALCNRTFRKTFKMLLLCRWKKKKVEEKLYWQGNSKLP
Source text: as §1, §2, §3

M3 muscarinic receptor = target: T5, M3 muscarinic receptor (Homo sapiens, UniProt P20309); assay: Receptor Selection and Amplification (R-SAT) assay, cloned M3 receptor; type: cell-based
T5 construct: expressed in transfected cells
Source text: as §1, §2, §3

[1] = some AChE inhibitors, such as tacrine; cited from earlier work
[2] = R-SAT, cloned m1 receptor, read-out: m1 pEC50 (converted)
[3] = R-SAT, cloned m2 receptor, read-out: m2 pEC50 (converted)
[4] = M1 pEC50, R-SAT, second table (COMPOUND ID series)
[5] = R-SAT, second table (COMPOUND ID series)
[6] = M2 pEC50, R-SAT, second table (COMPOUND ID series)

T5 sequence (P20309 whole entry): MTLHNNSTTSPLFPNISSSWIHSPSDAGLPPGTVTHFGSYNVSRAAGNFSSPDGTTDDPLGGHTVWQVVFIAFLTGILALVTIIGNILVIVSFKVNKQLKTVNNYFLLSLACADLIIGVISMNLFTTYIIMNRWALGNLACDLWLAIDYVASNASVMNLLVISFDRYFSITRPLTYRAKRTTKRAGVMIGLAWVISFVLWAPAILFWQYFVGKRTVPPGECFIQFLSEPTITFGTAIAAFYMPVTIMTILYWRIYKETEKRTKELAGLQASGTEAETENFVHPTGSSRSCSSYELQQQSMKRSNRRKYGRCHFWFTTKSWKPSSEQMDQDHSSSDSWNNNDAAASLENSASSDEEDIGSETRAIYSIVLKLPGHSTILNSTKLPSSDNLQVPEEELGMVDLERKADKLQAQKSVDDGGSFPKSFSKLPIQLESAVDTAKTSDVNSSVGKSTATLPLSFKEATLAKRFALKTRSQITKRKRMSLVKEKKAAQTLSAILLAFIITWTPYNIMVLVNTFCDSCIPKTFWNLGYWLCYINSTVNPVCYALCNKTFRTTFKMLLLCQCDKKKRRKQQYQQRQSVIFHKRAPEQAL

| Compound | Emax (M1 muscarinic receptor; R-SAT, cloned m1 receptor) [%] | EC50 (M1 muscarinic receptor; [2]) [nM] | Emax (M4 muscarinic receptor) [%] | EC50 (M4 muscarinic receptor) [nM] | Emax (M5 muscarinic receptor) [%] | EC50 (M5 muscarinic receptor) [nM] | EC50 (M1 muscarinic receptor; [4]) [nM] | M1 Eff (M1 muscarinic receptor; [5]) | EC50 (M2 muscarinic receptor; [6]) [nM] | M2 Eff (M2 muscarinic receptor; [5]) | EC50 (M3 muscarinic receptor) [nM] | M3 Eff (M3 muscarinic receptor; [5]) | other results |
| --- | --- | --- | --- | --- | --- | --- | --- | --- | --- | --- | --- | --- | --- |
| CCCCC1CCN(CCCN2C(=O)COc3ccc(C)cc32)CC1 [Compound 64LHY89-6, 4-[3-(4-Butyl-piperidin-1-yl)-propyl]-6-methyl-4H-benzo[1,4]oxazin-3-one] | 80 | 39.8 | 50 | 316 | 48 | 631 |  |  |  |  |  |  | Emax (M2 muscarinic receptor; R-SAT, cloned m2 receptor): 35%; EC50 (M2 muscarinic receptor; [3]): 631 nM |
| CCCCC1CCN(CCCN2CCOc3ccc(CC)cc32)CC1 [Compound 64LHY91-5, 4-[3-(4-Butyl-piperidin-1-yl)-propyl]-6-ethyl-3,4-dihydro-2H-benzo[1,4]oxazine] | 69 | 158 | 51 | 2000 | 38 | 631 |  |  |  |  |  |  |  |
| CCON=C1CC2CCC(C1)N2C[C@@H](C)CN1C(=O)COc2ccccc21 (single isomer, unassigned) [Compound 00261435] |  |  |  |  |  |  | 3.98 | 121 | 79.4 | 128 | 631 | 82.8 |  |
| CC(CN1CCC(OCC2CC2)CC1)CN1C(=O)COc2ccccc21 (racemic) [Compound 00262273, (R,S)-4-[3-(4-Cyclopropylmethoxypiperidin-1-yl)-2-methylpropyl]-4H-benzo[1,4]oxazin-3-one] |  |  |  |  |  |  |  | 155 |  | 98 |  | 35 | EC50 (M1 muscarinic receptor; R-SAT, second table (COMPOUND ID series), read-out: M1 pEC50 (converted)): 25.1 nM; EC50 (M2 muscarinic receptor; R-SAT, second table (COMPOUND ID series), read-out: M2 pEC50 (converted)): 794 nM; EC50 (M3 muscarinic receptor; R-SAT, second table (COMPOUND ID series), read-out: M3 pEC50 (converted)): 1580 nM |
| CCCCC1CCN(CCCN2C(=O)COc3cc(F)ccc32)CC1 [Compound 81MF763, 4-[3-(4-Butylpiperidin-1-yl)propyl]-7-fluoro-4H-benzo[1,4]oxazin-3-one] | 92 |  | 57 | 398 | 50 | 1260 |  |  |  |  |  |  | Emax (M2 muscarinic receptor; R-SAT, cloned m2 receptor): 47%; EC50 (M2 muscarinic receptor; [3]): 251 nM |
| CCCCC1CCN(CCCN2C(=O)CCc3cc(OC)ccc32)CC1 [Compound 77LH22-A, 1-[3-(4-Butyl-piperidin-1-yl)-propyl]-6-methoxy-3,4-dihydro-1H-quinolin-2-one] | 76 | 79.4 |  |  | 37 | > 3160 |  |  |  |  |  |  |  |
| CCOCCC1CC2CCC(C1)N2CC(C)CN1C(=O)COc2ccccc21 (single isomer, unassigned) [Compound 00263201] |  |  |  |  |  |  | 1 | 126 | 79.4 | 52 | 158 | 30 |  |
| C[C@@H](CN1C(=O)COc2ccccc21)CN1[C@@H]2CC[C@H]1C[C@@H](OCC1CC1)C2 [Compound 00262909, (R)-4-[3-(3a -Cyclopropylmethoxy-8-azabicyclo[3.2.1]oct-8-yl)-2-methylpropyl]-4H-benzo[1.4]oxazin-3-one] |  |  |  |  |  |  | 2.51 | 137 | 39.8 | 124 | 398 | 52 |  |
| Nc1c2c(nc3ccccc13)CCCC2 [tacrine] |  |  |  |  |  |  |  |  |  |  |  |  | patients with elevated liver transaminases (significant hepatotoxicity) [1]: about 30% |

From patent publication US7550459B2, “Tetrahydroquinoline analogues as muscarinic agonists” (Acadia Pharmaceuticals, Inc., priority 2001, dated 2009)
